In test [1] the target is T1, ROCK2 (Homo sapiens, UniProt O75116).
T1 construct: purchased DiscoverX scanMAX kinase assay panel
As to the kind of experiment: scanMAX kinase assay panel. The class given is binding. The note with it: read-out: control percentage (% control). The method, then: (§1) The activities of the compounds according to the present invention to more diverse enzymes were evaluated. Specifically, it was decided that the enzyme selectivity of Example 74 selected from the compounds of Examples 1 to 129 was measured at the request of DiscoverX, and the experiment was conducted using a scanMAX™ kinase assay panel. At this time, as a drug to treat the enzyme, a solution prepared by dissolving in DMSO at a concentration of 1 μM was used, and the control percentage (% control) was determined by the method of Equation 1 below, and the results were shown in Table 2 below.
(§2) In Equation above, the positive control and negative control mean compounds showing control percentages of 0% and 100% as DMSO, respectively.

The target of test [2] is T2, TAOK3 (Homo sapiens, UniProt Q9H2K8).
T2 construct: purchased DiscoverX
Briefly: scanMAX kinase assay panel. The class given is binding. The note with it: read-out: control percentage (% control). The protocol:
as §1, §2

Test [3] concerns the target T3, KIT(L576P) (Homo sapiens, UniProt P10721, L576P).
T3 construct: purchased DiscoverX scanMAX kinase assay panel
As to the kind of experiment: scanMAX kinase assay panel. Format: binding. The note with it: read-out: control percentage (% control). The method, then: as §1, §2

For test [4], the target named is T4, MUSK (Homo sapiens, UniProt O15146).
T4 construct: purchased DiscoverX scanMAX kinase assay panel
Briefly: scanMAX kinase assay panel. Format: binding. The note with it: read-out: control percentage (% control). The protocol: as §1, §2

The target of test [5] is T5, EGFR(L858R) (Homo sapiens, UniProt P00533, L858R).
T5 construct: purchased DiscoverX scanMAX kinase assay panel
T5 sequence (P00533 25-1210 L858R): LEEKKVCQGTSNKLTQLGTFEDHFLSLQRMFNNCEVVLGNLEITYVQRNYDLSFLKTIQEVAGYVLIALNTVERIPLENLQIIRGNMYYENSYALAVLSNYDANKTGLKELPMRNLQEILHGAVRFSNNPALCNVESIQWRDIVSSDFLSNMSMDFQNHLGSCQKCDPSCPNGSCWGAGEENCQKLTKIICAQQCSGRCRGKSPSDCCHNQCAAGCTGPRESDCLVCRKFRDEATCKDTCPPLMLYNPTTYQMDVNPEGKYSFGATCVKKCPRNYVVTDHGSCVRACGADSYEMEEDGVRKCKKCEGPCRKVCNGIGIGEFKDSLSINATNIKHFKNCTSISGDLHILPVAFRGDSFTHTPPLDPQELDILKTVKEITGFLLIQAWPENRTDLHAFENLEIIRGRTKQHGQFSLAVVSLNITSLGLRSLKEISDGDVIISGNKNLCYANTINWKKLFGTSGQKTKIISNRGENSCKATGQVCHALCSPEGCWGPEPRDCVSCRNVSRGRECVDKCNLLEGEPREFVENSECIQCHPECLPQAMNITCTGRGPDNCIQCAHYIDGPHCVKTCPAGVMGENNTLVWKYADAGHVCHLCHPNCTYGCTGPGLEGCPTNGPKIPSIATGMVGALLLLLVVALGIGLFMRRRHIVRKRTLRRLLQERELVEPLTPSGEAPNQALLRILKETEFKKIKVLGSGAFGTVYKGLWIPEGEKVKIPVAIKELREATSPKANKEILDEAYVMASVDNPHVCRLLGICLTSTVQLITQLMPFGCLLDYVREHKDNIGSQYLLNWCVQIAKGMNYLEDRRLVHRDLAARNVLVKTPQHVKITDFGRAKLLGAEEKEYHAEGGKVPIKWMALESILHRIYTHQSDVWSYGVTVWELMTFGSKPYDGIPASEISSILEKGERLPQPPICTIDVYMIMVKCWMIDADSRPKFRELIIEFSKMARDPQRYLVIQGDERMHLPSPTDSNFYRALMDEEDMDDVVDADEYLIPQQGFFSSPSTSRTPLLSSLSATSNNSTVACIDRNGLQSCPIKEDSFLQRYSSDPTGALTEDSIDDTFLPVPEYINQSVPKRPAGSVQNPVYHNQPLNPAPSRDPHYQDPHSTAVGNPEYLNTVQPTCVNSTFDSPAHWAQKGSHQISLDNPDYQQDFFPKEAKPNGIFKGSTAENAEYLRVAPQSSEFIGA
As to the kind of experiment: scanMAX kinase assay panel. The class given is binding. The note with it: read-out: control percentage (% control). The protocol: as §1, §2

Test [6] addresses T6, TIE1 (Homo sapiens, UniProt P35590).
T6 construct: purchased DiscoverX
Briefly: scanMAX kinase assay panel. The class given is binding. The note with it: read-out: control percentage (% control). The method, then:
as §1, §2

Test [7] addresses T7, RSK4(Kin.Dom.2-C-terminal) (Homo sapiens, UniProt Q9UK32).
T7 construct: RSK4(Kin.Dom.2-C-terminal); purchased DiscoverX scanMAX kinase assay panel
Briefly: scanMAX kinase assay panel. The class given is binding. The note with it: read-out: control percentage (% control). The method, then: as §1, §2

Test [8] has as its target T8, MARK3 (Homo sapiens, UniProt P27448).
T8 construct: purchased DiscoverX scanMAX kinase assay panel
As to the kind of experiment: scanMAX kinase assay panel. The class given is binding. The note with it: read-out: control percentage (% control). The method, then:
as §1, §2

Test [9] concerns the target T9, ALK (Homo sapiens, UniProt Q9UM73).
T9 construct: purchased DiscoverX (scanMAX panel, contract assay)
As to the kind of experiment: scanMAX kinase assay panel. The class given is binding. The note with it: read-out: control percentage (% control). The method, then: as §1, §2

Test [10] deals with T10, SLK (Homo sapiens, UniProt Q9H2G2).
T10 construct: purchased DiscoverX
T10 sequence (Q9H2G2 whole entry): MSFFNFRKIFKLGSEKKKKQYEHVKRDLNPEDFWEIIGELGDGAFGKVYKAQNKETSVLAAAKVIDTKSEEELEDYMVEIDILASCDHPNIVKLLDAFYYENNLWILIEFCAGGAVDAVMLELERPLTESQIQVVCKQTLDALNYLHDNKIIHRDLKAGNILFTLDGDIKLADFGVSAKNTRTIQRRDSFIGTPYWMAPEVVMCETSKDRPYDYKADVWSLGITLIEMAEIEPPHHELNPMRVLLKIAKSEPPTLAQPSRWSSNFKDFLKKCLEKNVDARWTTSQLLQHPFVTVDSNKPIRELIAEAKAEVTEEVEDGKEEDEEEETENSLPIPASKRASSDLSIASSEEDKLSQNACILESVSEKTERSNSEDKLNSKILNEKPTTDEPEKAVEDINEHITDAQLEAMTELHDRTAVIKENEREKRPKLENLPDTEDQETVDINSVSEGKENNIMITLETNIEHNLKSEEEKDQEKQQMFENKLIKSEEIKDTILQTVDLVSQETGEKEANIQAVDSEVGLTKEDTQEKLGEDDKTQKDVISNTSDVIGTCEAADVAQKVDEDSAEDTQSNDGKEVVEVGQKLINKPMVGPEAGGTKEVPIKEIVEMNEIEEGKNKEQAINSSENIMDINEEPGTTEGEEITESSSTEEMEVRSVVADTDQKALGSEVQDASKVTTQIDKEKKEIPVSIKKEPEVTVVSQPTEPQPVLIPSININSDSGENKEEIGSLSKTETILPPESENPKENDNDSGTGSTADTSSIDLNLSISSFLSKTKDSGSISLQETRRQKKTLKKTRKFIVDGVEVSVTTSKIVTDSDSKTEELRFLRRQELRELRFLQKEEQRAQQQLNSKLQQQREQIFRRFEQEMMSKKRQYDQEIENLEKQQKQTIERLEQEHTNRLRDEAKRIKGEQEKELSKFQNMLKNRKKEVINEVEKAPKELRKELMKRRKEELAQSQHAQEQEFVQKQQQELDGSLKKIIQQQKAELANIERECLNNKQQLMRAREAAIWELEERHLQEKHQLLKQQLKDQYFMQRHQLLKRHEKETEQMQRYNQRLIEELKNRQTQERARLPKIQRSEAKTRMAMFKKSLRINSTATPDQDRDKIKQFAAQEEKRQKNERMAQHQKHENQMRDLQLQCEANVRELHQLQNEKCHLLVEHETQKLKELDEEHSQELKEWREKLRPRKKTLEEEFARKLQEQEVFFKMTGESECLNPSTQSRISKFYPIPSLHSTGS
Briefly: scanMAX kinase assay panel. Format: binding. The note with it: read-out: control percentage (% control). The protocol: as §1, §2

Test [11] deals with T11, MAP4K3 (Homo sapiens, UniProt Q8IVH8).
T11 construct: purchased DiscoverX scanMAX kinase assay panel
T11 sequence (Q8IVH8 whole entry): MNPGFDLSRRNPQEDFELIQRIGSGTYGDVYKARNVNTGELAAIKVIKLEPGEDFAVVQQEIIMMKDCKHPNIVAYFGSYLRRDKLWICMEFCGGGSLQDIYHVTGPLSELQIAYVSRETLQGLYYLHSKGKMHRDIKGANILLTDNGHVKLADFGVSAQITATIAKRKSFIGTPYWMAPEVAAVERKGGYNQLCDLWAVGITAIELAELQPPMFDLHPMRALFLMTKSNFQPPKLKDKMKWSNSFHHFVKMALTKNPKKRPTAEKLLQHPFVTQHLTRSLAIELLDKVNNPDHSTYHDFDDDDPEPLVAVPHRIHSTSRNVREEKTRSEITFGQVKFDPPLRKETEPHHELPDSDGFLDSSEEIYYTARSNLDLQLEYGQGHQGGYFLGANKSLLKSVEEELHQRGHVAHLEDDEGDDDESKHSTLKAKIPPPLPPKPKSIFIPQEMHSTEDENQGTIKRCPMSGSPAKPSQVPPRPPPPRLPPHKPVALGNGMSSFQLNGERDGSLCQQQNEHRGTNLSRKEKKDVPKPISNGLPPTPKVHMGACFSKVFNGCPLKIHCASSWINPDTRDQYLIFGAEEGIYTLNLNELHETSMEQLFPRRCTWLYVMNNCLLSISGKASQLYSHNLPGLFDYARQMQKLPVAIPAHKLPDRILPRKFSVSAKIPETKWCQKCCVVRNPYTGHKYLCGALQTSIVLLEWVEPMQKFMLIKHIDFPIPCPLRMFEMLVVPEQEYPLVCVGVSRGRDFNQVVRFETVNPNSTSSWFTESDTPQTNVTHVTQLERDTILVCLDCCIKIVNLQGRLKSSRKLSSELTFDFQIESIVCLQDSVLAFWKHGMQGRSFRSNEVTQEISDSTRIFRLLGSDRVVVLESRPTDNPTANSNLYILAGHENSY
Briefly: scanMAX kinase assay panel. The class given is binding. The note with it: read-out: control percentage (% control). The protocol: as §1, §2

Test [12] has as its target T12, TRKA (Homo sapiens, UniProt P04629).
T12 construct: purchased DiscoverX
As to the kind of experiment: scanMAX kinase assay panel. Format: binding. The note with it: read-out: control percentage (% control). The method, then:
as §1, §2

The target in test [13] is T13, TRKC (Homo sapiens, UniProt Q16288).
T13 construct: purchased DiscoverX
Briefly: scanMAX kinase assay panel. The class given is binding. The note with it: read-out: control percentage (% control). The method, then: as §1, §2

Test [14] addresses T14, MAP3K2 (Homo sapiens, UniProt Q9Y2U5).
T14 construct: purchased DiscoverX scanMAX kinase assay panel
Briefly: scanMAX kinase assay panel. The note with it: read-out: control percentage (% control). Format: binding. The protocol:
as §1, §2

Test [15] addresses T15, HPK1 (Homo sapiens, UniProt Q92918).
T15 construct: purchased DiscoverX scanMAX kinase assay panel
As to the kind of experiment: scanMAX kinase assay panel. The note with it: read-out: control percentage (% control). Format: binding. The method, then: as §1, §2

The target of test [16] is T16, GRK4 (Homo sapiens, UniProt P32298).
T16 construct: purchased DiscoverX scanMAX kinase assay panel
As to the kind of experiment: scanMAX kinase assay panel. The class given is binding. The note with it: read-out: control percentage (% control). The protocol:
as §1, §2

For test [17], the target named is T17, human FLT3-ITD enzyme (Homo sapiens, UniProt P36888).
T17 sequence (P36888 1-993): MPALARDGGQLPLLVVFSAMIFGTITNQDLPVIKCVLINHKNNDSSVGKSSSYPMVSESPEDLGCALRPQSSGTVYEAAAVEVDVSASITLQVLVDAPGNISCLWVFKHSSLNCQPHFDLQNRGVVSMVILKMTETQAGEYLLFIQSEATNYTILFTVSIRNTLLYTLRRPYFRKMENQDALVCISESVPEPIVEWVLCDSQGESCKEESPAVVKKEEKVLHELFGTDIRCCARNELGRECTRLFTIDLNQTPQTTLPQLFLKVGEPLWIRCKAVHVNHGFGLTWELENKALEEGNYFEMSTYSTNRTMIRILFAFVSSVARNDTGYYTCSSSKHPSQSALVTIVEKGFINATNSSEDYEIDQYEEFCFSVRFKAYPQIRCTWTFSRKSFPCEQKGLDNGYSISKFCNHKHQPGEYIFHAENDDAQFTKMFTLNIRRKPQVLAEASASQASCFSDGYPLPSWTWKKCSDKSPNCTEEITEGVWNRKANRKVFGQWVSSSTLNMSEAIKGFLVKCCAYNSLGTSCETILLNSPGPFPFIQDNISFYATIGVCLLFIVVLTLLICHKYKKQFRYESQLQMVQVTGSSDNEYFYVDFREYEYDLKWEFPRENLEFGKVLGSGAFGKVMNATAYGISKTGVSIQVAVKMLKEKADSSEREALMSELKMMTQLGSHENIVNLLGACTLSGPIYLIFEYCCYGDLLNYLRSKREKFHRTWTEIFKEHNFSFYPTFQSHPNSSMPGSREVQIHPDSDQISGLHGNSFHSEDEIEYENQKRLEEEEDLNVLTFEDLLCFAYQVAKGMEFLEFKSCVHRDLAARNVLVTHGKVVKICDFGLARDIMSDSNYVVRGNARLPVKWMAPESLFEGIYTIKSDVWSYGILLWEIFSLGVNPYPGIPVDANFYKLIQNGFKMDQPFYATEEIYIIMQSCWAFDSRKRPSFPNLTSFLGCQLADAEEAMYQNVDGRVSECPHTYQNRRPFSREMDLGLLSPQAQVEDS
Briefly: FLT3 enzyme inhibitory ability (ADP-Glo kinase assay). The note with it: human FLT3-ITD enzyme 10 ng, ATP 10 μM, 25° C. 1 hour. The class given is biochemical. Summed up: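 Purified human FLT3-ITD (10 ng) with 10 μM ATP and specific substrate in 40 mM Tris-HCl pH 7.4, 20 mM MgCl2, 0.5 mg/mL BSA, 50 μM DTT, 1 h at 25 °C. ADP formation read by ADP-Glo luminescence; IC50 (nM) versus solvent-treated control.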

T6 sequence (P35590 22-1138): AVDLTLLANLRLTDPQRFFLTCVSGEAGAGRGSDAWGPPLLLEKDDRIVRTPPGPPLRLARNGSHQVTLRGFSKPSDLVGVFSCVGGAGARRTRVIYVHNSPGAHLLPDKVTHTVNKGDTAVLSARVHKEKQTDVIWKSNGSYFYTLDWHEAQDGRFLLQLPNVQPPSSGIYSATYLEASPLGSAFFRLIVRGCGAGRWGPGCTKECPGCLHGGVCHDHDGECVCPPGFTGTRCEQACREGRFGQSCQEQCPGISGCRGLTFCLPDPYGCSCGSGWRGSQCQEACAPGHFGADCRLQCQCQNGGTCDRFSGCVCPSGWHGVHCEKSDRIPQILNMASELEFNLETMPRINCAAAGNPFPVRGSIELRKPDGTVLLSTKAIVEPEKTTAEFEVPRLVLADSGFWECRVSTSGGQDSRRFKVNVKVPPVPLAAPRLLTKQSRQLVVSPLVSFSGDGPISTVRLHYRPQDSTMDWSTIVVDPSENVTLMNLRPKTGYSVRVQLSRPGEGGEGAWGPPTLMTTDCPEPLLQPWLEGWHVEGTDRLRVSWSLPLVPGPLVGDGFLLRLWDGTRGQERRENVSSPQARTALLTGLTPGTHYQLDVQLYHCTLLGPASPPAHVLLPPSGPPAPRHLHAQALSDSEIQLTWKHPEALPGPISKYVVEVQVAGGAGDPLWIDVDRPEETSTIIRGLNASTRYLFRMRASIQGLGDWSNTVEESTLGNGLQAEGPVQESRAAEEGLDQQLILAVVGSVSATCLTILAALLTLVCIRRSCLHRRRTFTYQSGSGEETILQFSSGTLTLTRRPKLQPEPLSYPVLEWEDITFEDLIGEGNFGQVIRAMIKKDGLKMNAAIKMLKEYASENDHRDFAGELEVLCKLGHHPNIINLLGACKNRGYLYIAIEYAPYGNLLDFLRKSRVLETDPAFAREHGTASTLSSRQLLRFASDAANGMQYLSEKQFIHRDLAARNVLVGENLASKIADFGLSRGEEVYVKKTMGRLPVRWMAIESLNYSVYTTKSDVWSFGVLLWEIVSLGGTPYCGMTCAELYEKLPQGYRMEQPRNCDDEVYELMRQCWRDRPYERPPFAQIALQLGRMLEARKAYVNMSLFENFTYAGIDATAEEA
T7 sequence (Q9UK32 426-683 limits assumed): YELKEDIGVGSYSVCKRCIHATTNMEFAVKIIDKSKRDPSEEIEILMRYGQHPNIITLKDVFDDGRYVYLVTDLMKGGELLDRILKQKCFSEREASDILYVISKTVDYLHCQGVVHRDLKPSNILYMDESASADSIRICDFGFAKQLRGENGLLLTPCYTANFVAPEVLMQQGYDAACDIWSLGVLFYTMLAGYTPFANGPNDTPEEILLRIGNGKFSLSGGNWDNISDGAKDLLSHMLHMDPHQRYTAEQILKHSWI

Broadly, the IC50 is the concentration that inhibits the measured activity by half. Read a high IC50 as lower potency. As to `CN1CCN(c2ccc(Nc3nc(N4OCC[C@H]4c4ccccc4)c4cc[nH]c4n3)cc2)CC1` [Example 74, (S)-N-(4-(4-methylpiperazin-1-yl)phenyl)-4-(3-phenylisoxazolidin-2-yl)-7H-pyrrolo[2,3-d]pyrimidin-2-amine], the remaining binding at 1 µM was 8% in [1]; 22% in [2]; 31% in test [3]; 0.4% in test [4]; 20% in test [5]; 16% in [6]. The remaining binding at 1 µM in [7] was determined as 31%; in test [8], 5.3%; in [9], 31%; in [10] it was 0.25%; in [11] it was 13%; in test [12] it was 1.1%. Further, the remaining binding at 1 µM in test [13] came out at 21%; in [14], 14%; in [15] it was 0.85%; in [16], 9.3%. This compound also came in with an IC50 in test [17] of over 500 nM.

Source of the values: patent US20220242870A1, “HETEROCYCLE-FUSED PYRIMIDINE DERIVATIVE AND USE THEREOF” (VORONOI Inc., priority 2019, published 2022).
